Assay results taken from paper PMC7255010, “Small-molecule activating SIRT6 elicits therapeutic effects and synergistically promotes anti-tumor activity of vitamin D3 in colorectal cancer” (Theranostics, 2020).

Legend:
[1] = test system: PDX tumors from CRC patients #1 and #2; assay: CRC PDX models; type: in vivo, nude mice; conditions: 30 mg/kg intraperitoneally every other day for 12 days, two PDX models
Method: (§1) All animal studies were performed following federal and institutional guidelines approved by the Institutional Animal Care and Use Committee at Shanghai Jiao-Tong University School of Medicine. To establish the CDXs, HCT116 cells (1 × 10^6) suspended in 100 μL of 1× PBS were injected subcutaneously into the flanks of six-week-old male BALB/c nude mice. To establish the PDXs, primary tumors resected from two independent CRC patients (patient #1 and #2) were collected in the culture medium. The necrotic and supporting tissues were carefully removed using sterilized surgical blades. The gross tumor was cut into fragments (2-3 mm in diameter) and inoculated subcutaneously into the flanks of nude mice. The mice were monitored daily, and caliper measurements began when tumors became visible. The tumor volume was monitored every other day via calipers. The tumor volume was calculated using the following formula: (L × W ^2) / 2, where L and W refer to the tumor diameter along the longitudinal and transverse axes, respectively. When the mean tumor volume was approximately 100 to 250 mm^3, the mice were randomly grouped (n = 6 per group for CDXs, n = 8 per group for PDXs), and treatment was initiated. […] After treatment or if meeting the humane endpoint criteria, the mice were sacrificed by CO2 asphyxiation. The tumors were dissected, imaged, and weighed. […]

[2] = test system: HCT116 xenograft tumors; assay: HCT116 CDX model; type: in vivo, BALB/c nude mice; conditions: 20 or 30 mg/kg intraperitoneally every other day for 16 days
Method: as §1

[3] = target: SIRT6 (Homo sapiens, UniProt Q8N6T7); assay: SIRT6 deacetylation on nucleosome substrates (western blot); type: biochemical; parameters: WT (wild-type) full-length human SIRT6 was inserted into the pET28a-LIC vector; made in house; host or cells: Escherichia coli BL21 (DE3); conditions: natural nucleosomes, dose-dependent
SIRT6, sequence (Q8N6T7 whole entry): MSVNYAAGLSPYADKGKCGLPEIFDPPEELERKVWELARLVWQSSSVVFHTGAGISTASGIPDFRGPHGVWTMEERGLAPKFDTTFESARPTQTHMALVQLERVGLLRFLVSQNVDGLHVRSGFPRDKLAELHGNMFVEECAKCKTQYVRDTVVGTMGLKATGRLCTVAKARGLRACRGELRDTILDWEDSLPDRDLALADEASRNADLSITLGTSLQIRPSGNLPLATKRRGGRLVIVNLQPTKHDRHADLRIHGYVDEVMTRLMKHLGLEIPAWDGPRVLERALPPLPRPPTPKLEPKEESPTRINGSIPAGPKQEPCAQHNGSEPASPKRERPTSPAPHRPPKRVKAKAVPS
Method: In vitro deacetylation reactions on nucleosome substrates were performed as previously reported, [32]. Briefly, 5 μg of mononucleosomes purified from HeLa cells with a nucleosome preparation kit (Active Motif) and 0.2 μg of purified WT SIRT6 were incubated in 40 μL of HDAC buffer (50 mM Tris-HCl [pH 8.0], 2 mM NAD^+, and 150 mM NaCl) for 80 min at 30 °C. […] The reaction mixture was analyzed by western blotting.

[4] = test system: HT29; assay: Cell cycle analysis (PI staining, flow cytometry); type: cell-based, human; conditions: for cell cycle phase distribution, G2/M: 48 h (0 µM: 22.6 ± 6.7); for cell cycle phase distribution, S: 48 h (0 µM: 36.9 ± 4.6); for cell cycle phase distribution, G0/G1: 48 h (0 µM: 40.5 ± 2.6)
Method: (§2) Then, cells were collected and fixed with 75% ethanol at 4 °C overnight. The cells were incubated with RNase I (50 μg/mL) in 1× PBS at 37 °C for 30 min and stained with propidium iodide (50 μg/mL) for 15 min. The cells were analyzed by flow cytometry and FACS DIVA software, v6.2 (BD Biosciences). The cell cycle distribution was analyzed using FlowJo 7.6.1 software. The data are presented as the mean ± s.d. of three independent experiments.

[5] = test system: HCT116; assay: Cell cycle analysis (PI staining, flow cytometry); type: cell-based, human; conditions: for cell cycle phase distribution, G2/M: 48 h (0 µM: 20.4 ± 4.5); for cell cycle phase distribution, S: 48 h (0 µM: 30.1 ± 4.4); for cell cycle phase distribution, G0/G1: 48 h (0 µM: 49.5 ± 3.5)
Method: as §2

[6] = test system: SW480; assay: Cell cycle analysis (PI staining, flow cytometry); type: cell-based, human; conditions: for cell cycle phase distribution, G2/M: 48 h (0 µM: 13.9 ± 1.8); for cell cycle phase distribution, S: 48 h (0 µM: 38.3 ± 3.6); for cell cycle phase distribution, G0/G1: 48 h (0 µM: 47.7 ± 1.3)
Method: as §2

[7] = test system: HCT116 xenograft tumors; assay: Combination treatment in the HCT116 CDX model; type: in vivo, BALB/c nude mice; conditions: 15 mg/kg MDL-811 plus 50 μg/kg 1,25(OH)2D3 intraperitoneally every other day for 14 days, vs vehicle or single drug
[8] = Pharmacokinetic studies in mice; type: in vivo; conditions: male, mouse, plasma, C57BL/6J mice
Method: Pharmacokinetic studies were performed by Shanghai Medicilon Inc, China, following standard protocols. Briefly, six-week-old male C57BL/6J mice were grouped randomly (n = 5 per group). […] Two administration formulations were prepared in the vehicle with 5% DMSO, 10% Solutol and 85% saline, with the pH adjusted to 7.0-8.0. After treatment, the mice were sacrificed, and their plasma samples were collected at 5 min, 15 min, 30 min, 1 h, 2 h, 4 h, 8 h, and 24 h. The drug concentration in plasma was analyzed by LC-MS/MS. Pharmacokinetic parameters were calculated using Analyst Software 1.6.3 from mean plasma concentration-time profiles. The area under the curve (AUC) was measured from time versus concentration data by the linear trapezoidal rule. […] The calculation was normalized to relative doses.

[9] = test system: CYP24A1; assay: RT-qPCR of CYP24A1 mRNA in CRC cells; type: cell-based, human
Method: Total RNA was extracted with TRIzol reagent (Invitrogen) according to the manufacturer's instructions. For cDNA synthesis, 1 μg of total RNA was reverse transcribed using a FastKing RT Kit (Tiangen). RT-qPCRs were run in triplicate using SYBR Green master mix (Roche) in an ABI 7900 Thermal Cycler (Applied Biosystems) according to the manufacturer's instructions. RT-qPCRs were performed in triplicate, and the mean cycle threshold (Ct) values were calculated for expression analysis. The mRNA levels of target genes were calculated using the 2^-ΔΔCt method. The expression data were normalized to β-actin expression levels and are presented as the mean ± s.e.m. of three independent experiments.

[10] = 30 mg/kg, IP 30 mg/mL, mean of five mice

## Cc1cc(F)c(Br)cc1NS(=O)(=O)c1ccc(NS(=O)(=O)c2cc(Cl)cc(Cl)c2)cc1CN1CCOC[C@H]1C [MDL-811]
[1]
  tumor growth: strong tumor regression in both PDX models
[2]
  tumor growth: strongly suppressed tumor growth in a dose-dependent manner
[3]
  deacetylation of H3K9Ac, H3K18Ac, and H3K56Ac: significantly enhanced the deacetylation of SIRT6 (H3K9Ac, H3K18Ac, and H3K56Ac)
[4]; HT29, 5 µM
  cell cycle phase distribution, G2/M: 20.2 ± 4.2
  cell cycle phase distribution, S: 25.3 ± 4.5
  cell cycle phase distribution, G0/G1: 54.5 ± 4.1
[4]; HT29, 10 µM
  cell cycle phase distribution, G2/M: 20.5 ± 3.7
  cell cycle phase distribution, S: 19.6 ± 2.3
  cell cycle phase distribution, G0/G1: 59.9 ± 2.7
[5]; HCT116, 5 µM
  cell cycle phase distribution, G2/M: 17.9 ± 4.0
  cell cycle phase distribution, S: 19.0 ± 2.3
  cell cycle phase distribution, G0/G1: 63.2 ± 2.1
[5]; HCT116, 10 µM
  cell cycle phase distribution, G2/M: 14.1 ± 3.8
  cell cycle phase distribution, S: 19.0 ± 4.3
  cell cycle phase distribution, G0/G1: 66.9 ± 1.4
[6]; SW480, 5 µM
  cell cycle phase distribution, G2/M: 10.8 ± 4.4
  cell cycle phase distribution, S: 26.3 ± 5.1
  cell cycle phase distribution, G0/G1: 62.9 ± 6.0
[6]; SW480, 10 µM
  cell cycle phase distribution, G2/M: 11.9 ± 6.4
  cell cycle phase distribution, S: 18.1 ± 4.9
  cell cycle phase distribution, G0/G1: 70.0 ± 3.8
[7]
  tumor growth, cotreatment: dramatically enhanced tumor growth regression
[8]; [10]
  AUC(0-inf): 19700 ng·h/mL
  half-life: 1.38 h
[8]; 30 mg/kg, IP 30 mg/mL, mean of five mice, read-out: AUC0-t
  AUC0-t: 19600 ng·h/mL
[8]; 30 mg/kg, IP 30 mg/mL, mean of five mice, read-out: Cmax
  Cmax: 5330 ng/mL
[8]; 30 mg/kg, IP 30 mg/mL, mean of five mice, read-out: MRT
  MRT: 2.63 h
[8]; 30 mg/kg, IP 30 mg/mL, mean of five mice, read-out: tmax
  tmax: 0.5 h
[8]; intraperitoneal, IP 30 mg/mL vs IV, ratio of AUC normalized to dose, read-out: F (bioavailability)
  bioavailability: 93%
[9]; HCT116 and HT29 cells, MDL-811 (5 µM) plus 1,25(OH)2D3 (5 µM), 48 h
  1,25(OH)2D3-enhanced CYP24A1 transcription, cotreatment: effectively abolished
[9]; HCT116 cells, 10 µM MDL-811, 48 h
  CYP24A1 mRNA expression levels: markedly decreased CYP24A1 mRNA expression levels
